Laboratory results as given in ChEMBL document CHEMBL3297664, “Identification and characterization of a new reversible MAGL inhibitor” (Bioorg Med Chem, 2014).
Blank lines part the entries; values can stand above or below the compound they belong to.

Key:
[1] = target: T1, Monoglyceride lipase (Homo sapiens, UniProt Q99685); assay: Inhibition of human recombinant MAGL using 4-nitrophenylacetate as substrate after 30 mins
T1 sequence (Q99685 whole entry): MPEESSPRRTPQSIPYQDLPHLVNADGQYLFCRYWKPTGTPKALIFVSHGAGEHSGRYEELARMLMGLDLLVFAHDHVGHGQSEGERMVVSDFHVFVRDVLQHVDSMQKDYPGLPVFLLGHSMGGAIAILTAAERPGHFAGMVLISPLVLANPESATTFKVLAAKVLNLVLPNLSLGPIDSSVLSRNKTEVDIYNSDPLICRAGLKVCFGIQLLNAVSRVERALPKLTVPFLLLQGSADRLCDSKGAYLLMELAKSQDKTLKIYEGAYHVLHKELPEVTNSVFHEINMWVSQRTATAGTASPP

[2] = tested on: MCF7; assay: Cytotoxicity against human MCF7 cells assessed as growth inhibition after 96 hrs; details: MCF7, 96 h
[3] = tested on: MDA-MB-231; assay: Cytotoxicity against human MDA-MB-231 cells assessed as growth inhibition after 96 hrs; details: MDA-MB-231, 96 h
[4] = Cytotoxicity against human COV318 cells assessed as growth inhibition after 96 hrs; details: COV318, 96 h
[5] = Cytotoxicity against human OVCAR3 cells assessed as growth inhibition after 96 hrs; details: OVCAR-3, 96 h
[6] = Cytotoxicity against human MSC assessed as growth inhibition after 96 hrs
[7] = target: T1, Monoglyceride lipase; assay: Inhibition of human recombinant MAGL using 4-nitrophenylacetate as substrate
[8] = target: T1, Monoglyceride lipase; assay: Inhibition of human recombinant MAGL using 4-nitrophenylacetate as substrate preincubated for 30 mins followed by substrate addition
[9] = target: T1, Monoglyceride lipase; assay: Inhibition of human recombinant MAGL using 4-nitrophenylacetate as substrate preincubated for 60 mins followed by substrate addition

SMILES: COc1ccc(-c2nnc(SCC(=O)N3CCN(c4ccc(OC)cc4)CC3)o2)cc1
- IC50 [1]: > 500 µM

SMILES: COc1ccc(CNC(=O)c2ccc3nc(-c4ccoc4)c(-c4ccoc4)nc3c2)cc1
- IC50 [1]: > 500 µM

SMILES: O=C(Cc1ccccc1)N1CCC(C(=O)N2CCN(c3ccc(F)cc3)CC2)CC1
- IC50 [1]: > 500 µM

SMILES: COc1ccc(C(=O)N2CCC(C(=O)c3ccc(Cl)cc3)CC2)cc1
- IC50 [2]: 19.9 µM
- IC50 [3]: 75.3 µM
- IC50 [4]: 73.9 µM
- IC50 [5]: 50.7 µM
- IC50 [6]: > 300 µM

SMILES: COc1nn(-c2ccc(NC(=O)OCc3ccccc3)c(C)c2)c(=O)o1
- IC50 [7]: 0.146 µM
- IC50 [8]: 0.026 µM
- IC50 [9]: 0.009 µM
- IC50 [2]: 4.2 µM
- IC50 [3]: 46 µM
- IC50 [4]: 107 µM
- IC50 [5]: > 79.8 µM
- IC50 [6]: 276 µM

Continued, values first:

- IC50 [1]: > 500 µM
SMILES: CCOc1ccc(N2CC(C(=O)Nc3ccc(C(C)=O)cc3)CC2=O)cc1 (stereo not given)

- IC50 [1]: > 500 µM
SMILES: O=C(c1ccc([N+](=O)[O-])cc1)c1ccc2c(c1)C(=O)N(c1cccnc1)C2=O

- IC50 [1]: > 500 µM
SMILES: O=C(Cn1nnc(-c2ccc(N3CCOCC3)cc2)n1)N1CCN(c2ccccc2)CC1

- IC50 [1]: > 500 µM
SMILES: COc1ccc(-c2nnn(CC(=O)N3CCN(c4ccc(F)cc4)CC3)n2)cc1
